Experiments:
xenograft models = conditions: in vivo, Buggy et al. 2006; cited from earlier work
cultured tumour cells = cultured tumour cells in vitro; Buggy et al. 2006; cited from earlier work
[1] = system: colorectal cancer, a pancreatic cancer or a gastric cancer; assay: Clinical study of the association with FOLFOX; format: in vivo; conditions: patients previously treated by FOLFOX
Method: A clinical study for testing the association of N-hydroxy-4-{2-[3-(N,N-dimethylamino-methyl)benzofuran-2-ylcarbonylamino]ethoxy}benzamide with FOLFOX is carried out on a maximum of 60 patients. Patients included in the study suffer from a colorectal cancer, a pancreatic cancer or a gastric cancer, and they have been treated by a treatment based on FOLFOX (i.e., alone or in association with other treatments) prior to their inclusion. More precisely, the study consists of 14-day cycles, each of the cycles being performed as follows: N-hydroxy-4-{2-[3-(N,N-dimethylaminomethyl)benzofuran-2-ylcarbonylamino]ethoxy}benzamide (in the form of a hydrochloride salt) is administered for 4 consecutive days whilst oxaliplatin and folinic acid are administered simultaneously on the third day, at the end of infusion of which 5-fluorouracil is administered continuously until the fifth day. […] At the end of a treatment cycle, the toxicity of the regimen associating N-hydroxy-4-{2-[3-(N,N-dimethylaminomethyl)benzofuran-2-ylcarbonylamino]ethoxy}benzamide and FOLFOX is assessed. […] Every four cycles, the efficacy of the treatment is assessed by evaluating the tumour response (CT scan, MRI, etc.). The acceptability profile is also evaluated (especially haematologic and cardiac toxicity).

[2] = system: histone deacetylase (HDAC); conditions: described in WO2004/092115; cited from earlier work

For `CN(C)Cc1c(C(=O)NCCOc2ccc(C(=O)NO)cc2)oc2ccccc12` [N-hydroxy-4-{2-[3-(N,N-dimethylaminomethyl)benzofuran-2-ylcarbonylamino]ethoxy}benzamide], which tumour growth (xenograft models) is on record?
Its tumour growth is “inhibits tumour growth”.

And the apoptosis (cultured tumour cells)?
The apoptosis was “induces apoptosis”.

What about the cell growth (cultured tumour cells) of the same compound?
Its cell growth is “inhibition of cell growth”.

And the “efficacy of the treatment (tumour response) of the association with FOLFOX” value ([1]; hydrochloride salt p.o., 160-360 mg daily, 4 consecutive days, in association with FOLFOX, 14-day cycles)?
Its value is “promising”.

And the “reversal of resistance to FOLFOX” value [1]?
The value was “reverse the resistance to FOLFOX”.

What about the HDAC inhibition [2] of the same compound?
Its HDAC inhibition is “powerful histone deacetylase (HDAC) inhibitor”.

Reference: patent US20150038513A1, “ASSOCIATION BETWEEN N-HYDROXY-4-BENZAMIDE AND FOLFOX” (LES LABORATOIRES SERVIER, priority 2011, published 2015)
